Test results taken from patent publication US10759751B2, “Substituted spirocyclohexanes as muscarinic M1 receptor and/or M4 receptor agonists” (Heptares Therapeutics Limited, priority 2016, dated 2020).

Columns and labels:
Assay type in all cases: cell-based
[1] = target: T1, human muscarinic M1 receptor (Homo sapiens, UniProt P11229); assay: Alphascreen Surefire phospho-ERK1/2 functional assay, M1; conditions: for EC50: phospho-ERK1/2, read-out: pEC50 M1 (converted); for Emax: CHO, read-out: M1 % Emax cf. ACh, CHO cells stably expressing human M1
T1 sequence (P11229 1-460): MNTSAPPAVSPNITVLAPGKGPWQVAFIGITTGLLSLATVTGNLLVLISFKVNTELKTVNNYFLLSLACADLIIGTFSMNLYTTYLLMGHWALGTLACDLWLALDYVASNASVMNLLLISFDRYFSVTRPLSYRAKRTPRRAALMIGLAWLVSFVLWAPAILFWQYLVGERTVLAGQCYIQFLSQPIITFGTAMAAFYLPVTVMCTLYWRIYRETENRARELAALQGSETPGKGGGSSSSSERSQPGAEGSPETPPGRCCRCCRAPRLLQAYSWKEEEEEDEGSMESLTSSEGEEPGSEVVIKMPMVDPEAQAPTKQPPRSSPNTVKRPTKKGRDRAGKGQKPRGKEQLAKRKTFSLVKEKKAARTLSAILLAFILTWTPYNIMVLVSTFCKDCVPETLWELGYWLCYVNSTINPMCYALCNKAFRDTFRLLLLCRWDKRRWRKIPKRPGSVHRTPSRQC
How it was run: (§1)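 Read-out: AlphaScreen SureFire signal for phospho-ERK1/2 in lysates of stably transfected CHO cells, read after 2 h in the dark. Cells were serum-starved overnight and given agonist for 5 min at 37 °C. Values are pEC50 and Emax.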

[2] = target: T2, human muscarinic M4 receptor (Homo sapiens, UniProt P08173); assay: Alphascreen Surefire phospho-ERK1/2 functional assay, M4; conditions: for EC50: phospho-ERK1/2, read-out: pEC50 M4 (converted); for Emax: CHO, read-out: M4 % Emax cf. ACh, CHO cells stably expressing human M4
T2 construct: expressed in transfected cells
T2 sequence (P08173 1-479): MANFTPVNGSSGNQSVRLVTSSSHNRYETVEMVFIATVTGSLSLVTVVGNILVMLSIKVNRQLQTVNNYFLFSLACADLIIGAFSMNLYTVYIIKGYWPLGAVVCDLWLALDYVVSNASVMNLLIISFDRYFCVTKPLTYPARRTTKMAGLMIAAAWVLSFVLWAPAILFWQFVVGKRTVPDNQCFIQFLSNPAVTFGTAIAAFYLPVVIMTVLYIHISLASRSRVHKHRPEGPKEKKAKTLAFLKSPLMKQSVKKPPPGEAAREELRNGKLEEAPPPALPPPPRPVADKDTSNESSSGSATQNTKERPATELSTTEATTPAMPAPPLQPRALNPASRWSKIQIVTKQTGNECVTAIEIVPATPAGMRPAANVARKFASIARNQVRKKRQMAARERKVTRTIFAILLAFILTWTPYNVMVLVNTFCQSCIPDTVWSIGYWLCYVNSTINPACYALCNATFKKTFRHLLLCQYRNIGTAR
How it was run: as §1

[3] = target: T3, human muscarinic M2 receptor (Homo sapiens, UniProt P08172); assay: Alphascreen Surefire phospho-ERK1/2 functional assay, M2; conditions: for EC50: CHO cells stably expressing human M2, phospho-ERK1/2, read-out: pEC50 M2 (converted); for Emax: CHO, read-out: M2 % Emax cf. ACh
T3 sequence (P08172 1-466): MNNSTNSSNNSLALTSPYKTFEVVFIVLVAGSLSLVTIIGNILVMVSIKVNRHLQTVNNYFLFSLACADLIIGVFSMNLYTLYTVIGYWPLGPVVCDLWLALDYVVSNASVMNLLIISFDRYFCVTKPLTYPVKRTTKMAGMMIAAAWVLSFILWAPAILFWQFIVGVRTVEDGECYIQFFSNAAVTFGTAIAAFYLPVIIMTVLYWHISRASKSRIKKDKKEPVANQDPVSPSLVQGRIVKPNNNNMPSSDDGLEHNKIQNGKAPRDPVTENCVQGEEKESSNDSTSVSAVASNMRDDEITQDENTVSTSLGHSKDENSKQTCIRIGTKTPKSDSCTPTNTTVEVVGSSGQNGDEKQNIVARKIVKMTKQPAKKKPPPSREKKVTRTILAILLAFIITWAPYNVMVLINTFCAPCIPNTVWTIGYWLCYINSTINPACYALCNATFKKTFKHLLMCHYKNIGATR
How it was run: as §1

[4] = target: T4, human muscarinic M3 receptor (Homo sapiens, UniProt P20309); assay: Alphascreen Surefire phospho-ERK1/2 functional assay, M3; conditions: for EC50: CHO cells stably expressing human M3, phospho-ERK1/2, read-out: pEC50 M3 (converted); for Emax: CHO, read-out: M3 % Emax cf. ACh
T4 construct: expressed in transfected cells
T4 sequence (P20309 whole entry): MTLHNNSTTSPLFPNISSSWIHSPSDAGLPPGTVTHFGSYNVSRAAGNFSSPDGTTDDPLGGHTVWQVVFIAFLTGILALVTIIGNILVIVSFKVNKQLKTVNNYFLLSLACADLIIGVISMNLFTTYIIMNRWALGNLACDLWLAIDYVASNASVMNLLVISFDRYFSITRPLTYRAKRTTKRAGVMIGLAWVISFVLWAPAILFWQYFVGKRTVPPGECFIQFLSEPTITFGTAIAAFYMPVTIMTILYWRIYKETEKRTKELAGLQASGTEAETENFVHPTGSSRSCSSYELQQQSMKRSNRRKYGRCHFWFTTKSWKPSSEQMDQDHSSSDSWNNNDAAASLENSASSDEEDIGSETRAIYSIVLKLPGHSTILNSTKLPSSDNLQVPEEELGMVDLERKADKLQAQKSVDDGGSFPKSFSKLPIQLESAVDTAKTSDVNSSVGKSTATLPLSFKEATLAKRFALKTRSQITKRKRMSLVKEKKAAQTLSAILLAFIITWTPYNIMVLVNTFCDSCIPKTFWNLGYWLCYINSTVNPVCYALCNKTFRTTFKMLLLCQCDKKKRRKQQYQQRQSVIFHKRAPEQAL
How it was run: as §1

[5] = CHO cells stably expressing human M1
[6] = CHO cells stably expressing human M4

Row | SMILES | M1 % Emax cf. ACh ([1]; CHO cells stably expressing human M1, Emax relative to ACh) | EC50 [1, 5] | M4 % Emax cf. ACh ([2]; CHO cells stably expressing human M4, Emax relative to ACh) | EC50 [2, 6] | EC50 [3] | Emax [3] | EC50 [4] | Emax [4] | Emax ([1]; Emax relative to ACh) | Emax ([2]; Emax relative to ACh)
1 | CCOC(=O)N1CCCN(C2CCC(C#N)(c3ccc(Br)cn3)CC2)CC1 (single isomer, unassigned) [3-17 Isomer 1] |  | 3.02 nM |  | 72.4 nM | > 20000 nM | 0% | > 20000 nM | 0% | 92% | 80%
2 | CCc1noc(C2CC3(C2)CN(C2CCC4(CC2)C(=O)Nc2ccccc24)C3)n1 (single isomer, unassigned) [25-1 Isomer 1] |  | 617 nM |  | 155 nM | > 20000 nM | 13% | > 20000 nM | 6% | 43% | 70%
3 | N#CC1(c2ccccc2)CCC(N2CCCN(C(=O)OCCF)CC2)CC1 (mixture of isomers) [3-29 mixture of isomers] |  | 537 nM |  | 200 nM | > 20000 nM | 3% | > 20000 nM | 3% | 75% | 68%
4 | CCOC(=O)N1CCCN(C2CCC3(CC2)C(=O)Nc2ccc(C)cc23)CC1 (single isomer, unassigned) [4-7 isomer 1] |  | 44.7 nM |  | 5370 nM | > 20000 nM | 16% | > 20000 nM | 20% | 115% | 100%
5 | CCOC(=O)N[C@H]1CCN(C2CCC(C#N)(c3cccc(C)c3)CC2)C1 (single isomer, unassigned) [1-9 Isomer 2] |  | 27.5 nM |  | > 20000 nM | > 20000 nM | 6% | > 20000 nM | 2% | 99% | 12%
6 | Cc1noc(C2CC3(CCN(C4CCC(C#N)(c5ccccc5F)CC4)C3)C2)n1 (single isomer, unassigned) [21-2 Isomer 3] |  | 72.4 nM |  | 61.7 nM | > 20000 nM | 16% | > 20000 nM | 15% | 77% | 58%
7 | Cc1noc([C@H]2CC[C@@H](NC3CCC(C#N)(c4ccccn4)CC3)C2)n1 (single isomer, unassigned) [19-1 Isomer 2] |  | 1740 nM |  | 224 nM | > 20000 nM | 21% | > 20000 nM | 8% | 45% | 83%

Further lines, results first:

Row | M1 % Emax cf. ACh ([1]; CHO cells stably expressing human M1, Emax relative to ACh) | EC50 [1, 5] | M4 % Emax cf. ACh ([2]; CHO cells stably expressing human M4, Emax relative to ACh) | EC50 [2, 6] | EC50 [3] | Emax [3] | EC50 [4] | Emax [4] | Emax ([1]; Emax relative to ACh) | Emax ([2]; Emax relative to ACh) | SMILES
8 | 130% | 36.3 nM | 116% | 75.9 nM | > 15800 nM | 39% | > 15800 nM | 17% |  |  | CCOC(=O)N1CCCN(C2CCC3(CC2)C(=O)Nc2cc(C)ccc23)CC1 (single isomer, unassigned) [4-6 isomer 2]
9 |  | 35.5 nM |  | 105 nM | > 20000 nM | 18% | > 20000 nM | 7% | 106% | 62% | CCOC(=O)N1CCCN(C2CCC(C#N)(c3cccc(C)c3)CC2)CC1 (mixture of isomers) [3-8 mixture of isomers]
10 |  | 19.5 nM |  | 2570 nM | > 20000 nM | 8% | > 20000 nM | 0% | 91% | 52% | C#CCOC(=O)N1CCCN(C2CCC(C#N)(c3ccc(OC)cn3)CC2)CC1 (single isomer, unassigned) [3-31 Isomer 1]
11 |  | 30.2 nM |  | 1740 nM | > 20000 nM | 5% | > 20000 nM | 6% | 101% | 39% | CCOC(=O)N1CCCN(C2CCC(C#N)(c3ccc(OC)cn3)CC2)CC1 (single isomer, unassigned) [3-19 Isomer 2]
